Assay results taken from US7608577B2, “Peptidyl ketones as inhibitors of DPIV” (OSI Pharmaceuticals, Inc., priority 2001, dated 2009).

Experiments:
porcine DPIV = porcine DPIV (Sus scrofa, UniProt P22411); test: Determination of IC50 values against DPIV; assay type: biochemical; conditions: Gly-Pro-pNA 0.4 mM, APN, 30° C., HEPES pH7.6, read-out: IC50
Method: 100 μl inhibitor stock solution was mixed with 100 μl buffer (HEPES pH7.6) and 20 μl diluted porcine DPIV and preincubated at 30° C. Reaction was started by addition of a mixture of 50 μl substrate (Gly-Pro-pNA, final concentration 0.4 mM) and 2 μl APN stock solution. Formation of the product pNA was measured at 405 nm and 30° C. over 10 min using the HTS 7000Plus plate reader (Perkin Elmer) and slopes were calculated. The final inhibitor concentrations ranged between 1 mM and 30 nM. For calculation of IC50 GraFit 4.0.13 (Erithacus Software) was used.

plasma DPIV activity = molecular target: T1, plasma DPIV activity (Rattus norvegicus, UniProt P14740); test: DPIV inhibiting activity after intravasal and oral administration to Wistar rats; assay type: in vivo; conditions: 100 mg/kg; for In vivo DPIV-inhibition at tmax, i.v.: intra-vasal (intra-arterial); for In vivo DPIV-inhibition at tmax, p.o.: oral
T1 construct: from tissue; host or cells: plasma of Wistar rats
Method: Male Wistar rats (Shoe: Wist(Sho)) with a body weight ranging between 250 and 350 g were purchased from Tierzucht Schönwalde (Schönwalde, Germany).
Animals were single-caged under conventional conditions with controlled temperature (22±2° C.) on a 12/12 hours light/dark cycle (light on at 06:00 AM). Standard pelleted chow (ssniff® Soest, Germany) and tap water acidified with HCl were allowed ad libitum.
(§1) After ≧one week of adaptation at the housing conditions, catheters were implanted into the carotid artery of Wistar rats under general anaesthesia (i.p. injection of 0.25 ml/kg b.w. ROMPUN® [2%], BayerVital, Germany and 0.5 ml/kg b.w. Ketamin 10, Atarost GmbH & Co., Twistringen, Germany). The animals were allowed to recover for one week. The catheters were flushed with heparin-saline (100 IU/ml) three times per week. In case of catheter dysfunction, a second catheter was inserted into the contralateral carotid artery of the respective rat. After one week of recovery from surgery, this animal was reintegrated into the study. In case of dysfunction of the second catheter, the animal was withdrawn from the study. A new animal was recruited and the experiments were continued in the planned sequence, beginning at least 7 days after catheter implantation.
Rats with intact catheter function were administered placebo (1 ml saline, 0.154 mol/l) or test compound via the oral and the intra-vasal (intra-arterial) route. After overnight fasting, 100 μl samples of heparinised arterial blood were collected at −30, −5, and 0 min. The test substance was dissolved freshly in 1.0 ml saline (0.154 mol/l) and was administered at 0 min either orally via a feeding tube (75 mm; Fine Science Tools, Heidelberg, Germany) or via the intra-vasal route. In the case of oral administration, an additional volume of 1 ml saline was injected into the arterial catheter. In the case of intra-arterial administration, the catheter was immediately flushed with 30 μl saline and an additional 1 ml of saline was given orally via the feeding tube.
After application of placebo or the test substances, arterial blood samples were taken at 2.5, 5, 7.5, 10, 15, 20, 40, 60 and 120 min from the carotid catheter of the conscious unrestrained rats. All blood samples were collected into ice cooled Eppendorf tubes (Eppendorf-Netheler-Hinz, Hamburg, Germany) filled with 10 μl 1M sodium citrate buffer (pH 3.0) for plasma DPIV activity measurement. Eppendorf tubes were centrifuged immediately (12000 rpm for 2 min, Hettich Zentrifuge EBA 12, Tuttlingen; Germany): The plasma fractions were stored on ice until analysis or were frozen at −20° C. until analysis. […]
Statistical evaluations and graphics were performed with PRISM® 3.02 (GraphPad Software, Inc.). All parameters were analysed in a descriptive manner including mean and SD.

diabetic Zucker rats = test: Glucose tolerance (OGTT) in diabetic Zucker rats; assay type: in vivo, Zucker rats (fa/fa); conditions: for Improvement: vs AUC control
Method: N=30 male Zucker rats (fa/fa), mean age 11 weeks (5-12 weeks), mean body weight 350 g (150-400 g), were purchased from Charles River (Sulzfeld, Germany). They were kept for >12 weeks until all the fatty Zucker rats had the characteristics of manifest Diabetes mellitus.
Animals were kept single-housed under conventional conditions with controlled temperature (22±2° C.) on a 12/12 hours light/dark cycle (light on at 06:00 a.m.). Standard pellets (ssniff®, Soest, Germany) and tap water acidified with HCl were allowed ad libitum.
as §1, with “Fatty Zucker rats, 17-24 weeks old, adapted to the” for “After ≧one week of adaptation at the”, “conditions, were well prepared for the tests. Catheters” for “conditions, catheters”, “of fatty Zucker” for “of Wistar”, “b.w. Rompun®” for “b.w. ROMPUN®”, “the contra-lateral” for “the contralateral”
Fatty Zucker rats with intact catheter function were given in random order placebo (1 ml saline, 0.154 mol/l; N=9 animals as control), or test substance, solved in 1 ml saline (N=6 animals in each test group).
After overnight fasting, the fatty Zucker rats were given placebo and test substance, respectively, via feeding tube orally (15 G, 75 mm; Fine Science Tools, Heidelberg, Germany) at −10 min. An oral glucose tolerance test (OGTT) with 2 g/kg b.w. glucose as a 40% solution (B. Braun Melsungen, Melsungen, Germany) was implemented at ±0 min. The glucose was administered via a second feeding tube. Arterial blood samples from the carotid catheter were collected at −30 min, −15 min, ±0 min and at 5, 10, 15, 20, 30, 40, 60, 90 and 120 min into 20 μl glass capillaries, which were placed in standard tubes filled with 1 ml solution for hemolysis (blood glucose measurement). […]
Blood glucose: Glucose levels were measured using the glucose oxidase procedure (Super G Glukosemeβgerät; Dr. Müller Gerätebau, Freital, Germany).

T1 sequence (P14740 38-767 limits assumed): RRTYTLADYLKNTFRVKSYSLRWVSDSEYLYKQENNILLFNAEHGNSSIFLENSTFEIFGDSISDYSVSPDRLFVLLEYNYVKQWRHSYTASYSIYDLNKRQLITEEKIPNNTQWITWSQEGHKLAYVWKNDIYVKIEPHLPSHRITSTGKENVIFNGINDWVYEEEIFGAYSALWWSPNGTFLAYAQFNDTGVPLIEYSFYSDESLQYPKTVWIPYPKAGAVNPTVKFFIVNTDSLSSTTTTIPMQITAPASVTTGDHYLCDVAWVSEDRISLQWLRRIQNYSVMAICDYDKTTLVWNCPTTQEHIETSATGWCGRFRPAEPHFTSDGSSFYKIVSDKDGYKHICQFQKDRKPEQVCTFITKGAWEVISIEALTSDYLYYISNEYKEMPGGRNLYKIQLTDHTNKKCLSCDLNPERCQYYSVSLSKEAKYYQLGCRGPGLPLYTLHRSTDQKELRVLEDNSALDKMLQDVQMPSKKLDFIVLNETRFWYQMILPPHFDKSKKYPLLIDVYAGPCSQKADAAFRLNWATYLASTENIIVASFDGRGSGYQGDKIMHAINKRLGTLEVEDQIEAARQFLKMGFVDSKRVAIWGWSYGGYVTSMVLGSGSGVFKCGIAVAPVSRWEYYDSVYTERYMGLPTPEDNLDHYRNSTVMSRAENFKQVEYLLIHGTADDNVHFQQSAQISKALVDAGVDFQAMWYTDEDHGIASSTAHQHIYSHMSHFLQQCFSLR
Chain of porcine DPIV (P22411 whole entry): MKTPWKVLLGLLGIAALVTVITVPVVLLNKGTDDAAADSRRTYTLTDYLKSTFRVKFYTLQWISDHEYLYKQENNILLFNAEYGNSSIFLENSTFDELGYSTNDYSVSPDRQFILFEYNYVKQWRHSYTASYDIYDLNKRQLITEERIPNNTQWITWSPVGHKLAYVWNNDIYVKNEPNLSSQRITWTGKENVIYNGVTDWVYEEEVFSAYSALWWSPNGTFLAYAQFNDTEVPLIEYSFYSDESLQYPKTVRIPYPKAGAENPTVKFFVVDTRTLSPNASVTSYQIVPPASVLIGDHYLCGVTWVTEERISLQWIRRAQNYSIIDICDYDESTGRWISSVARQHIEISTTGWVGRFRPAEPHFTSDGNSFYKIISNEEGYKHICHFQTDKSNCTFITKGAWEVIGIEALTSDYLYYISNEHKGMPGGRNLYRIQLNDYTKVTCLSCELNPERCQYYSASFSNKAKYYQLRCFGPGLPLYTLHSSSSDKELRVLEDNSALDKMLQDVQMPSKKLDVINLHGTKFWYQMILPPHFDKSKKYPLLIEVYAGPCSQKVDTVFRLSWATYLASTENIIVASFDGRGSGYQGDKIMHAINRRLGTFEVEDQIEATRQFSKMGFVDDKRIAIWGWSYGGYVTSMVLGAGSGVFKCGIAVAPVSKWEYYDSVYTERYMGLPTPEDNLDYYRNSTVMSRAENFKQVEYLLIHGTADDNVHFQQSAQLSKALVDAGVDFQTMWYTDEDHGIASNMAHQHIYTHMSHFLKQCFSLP

In the case of `Br.CC(=O)OCC(=O)[C@@H]1CCCN1C(=O)[C@@H](NC(=O)[C@H](C)N)C(C)C` [H-Ala-Val-Pro-CH2O—CO—CH3*HBr, 2-[(Acetyloxy-methyl)carbonyl]-1-N-[(L)-Alanyl-(L)-Valinyl]-(2S)-pyrrolidine hydrobromide], the IC50 (porcine DPIV) is reported as 10.2 nM, the “In vivo DPIV-inhibition at tmax, i.v.” value (plasma DPIV activity) is reported as 89% and the “In vivo DPIV-inhibition at tmax, p.o.” value (plasma DPIV activity) is reported as 87%. The AUC test compound (diabetic Zucker rats; OGTT, 5 mg/kg b.w. oral) was 309.1 mmol·min/L, the Improvement (diabetic Zucker rats; OGTT, 5 mg/kg b.w. oral) was 44.9% and the AUC test compound (diabetic Zucker rats; OGTT, 15 mg/kg b.w. oral) was 300.9 mmol·min/L. It also gave an Improvement (diabetic Zucker rats; OGTT, 15 mg/kg b.w. oral) of 46.4%, an AUC test compound (diabetic Zucker rats; OGTT, 50 mg/kg b.w. oral) of 254.7 mmol·min/L and an Improvement (diabetic Zucker rats; OGTT, 50 mg/kg b.w. oral) of 54.6%.

For `Br.CC(C)[C@H](NC(=O)[C@H](C)N)C(=O)N1CCC[C@H]1C(=O)COC(=O)c1ccccc1` [H-Ala-Val-Pro-CO—CH2O—CO—Ph*HBr, 2-[(Benzoyloxy-methyl)carbonyl]-1-N-[{(L)-Alanyl}-(L)-Valinyl]-(2S)-pyrrolidine hydrobromide], the “In vivo DPIV-inhibition at tmax, i.v.” value (plasma DPIV activity) was 95%, the “In vivo DPIV-inhibition at tmax, p.o.” value (plasma DPIV activity) was 68% and the AUC test compound (diabetic Zucker rats; OGTT, 5 mg/kg b.w. oral) was 209.1 mmol·min/L. It also gave an Improvement (diabetic Zucker rats; OGTT, 5 mg/kg b.w. oral) of 59.5%, an AUC test compound (diabetic Zucker rats; OGTT, 15 mg/kg b.w. oral) of 245.4 mmol·min/L and an Improvement (diabetic Zucker rats; OGTT, 15 mg/kg b.w. oral) of 52.6%. It also gave an AUC test compound (diabetic Zucker rats; OGTT, 50 mg/kg b.w. oral) of 160.5 mmol·min/L and an Improvement (diabetic Zucker rats; OGTT, 50 mg/kg b.w. oral) of 69.0%.

`Br.CC(=O)[C@@H]1CCCN1C(=O)[C@@H](NC(=O)[C@H](C)N)C(C)C` [H-Ala-Val-Pro-Me*HBr, 2-Methylcarbonyl-1-N-[(L)-Alanyl-(L)-Valinyl]-(2S)-pyrrolidine hydrobromide] was tested, and the IC50 (porcine DPIV) was 579 nM, the AUC test compound (diabetic Zucker rats; OGTT 2 g/kg glucose, 100 mg/kg b.w. oral) was 394.4 mmol·min/L and the Improvement (diabetic Zucker rats; OGTT, 100 mg/kg b.w. oral) was 48.5%.
